Experimental findings from patent US20200326330A1, “Device and method for multidimensional cell culture” (Premas Biotech Pvt Ltd, priority 2019, published 2020) are described below.

Assay [1] has as its system MCF-7 tissueoids. The assay can be described thus: Prestoblue viability of MCF-7 tissueoids (3D) on AXTEX-4D.
The test system of assay [2] is MCF-7 cells. In words: Prestoblue viability of MCF-7 2D monolayer culture. In kind it is cell-based. The settings on record: Homo sapiens, MCF7, 1 μM doxorubicin, 48 hrs, read-out: viability (prestoblue, normalized with vehicle control as 100%).
The test system of assay [3] is MCF-7 cells. The assay can be described thus: Morphology and growth of MCF-7 cells in 2D monolayer culture treated with doxorubicin. The format is cell-based, human. The settings on record: MCF-7 2D monolayer, 3 days.
Assay [4] deals with MCF-7 tissueoids. The assay can be described thus: Morphology and growth of MCF-7 tissueoids on AXTEX-4D treated with doxorubicin. The settings on record: 3 days. The format is cell-based, human.

For the molecule `COc1cccc2c1C(=O)c1c(O)c3c(c(O)c1C2=O)C[C@@](O)(C(=O)CO)C[C@@H]3O[C@H]1C[C@H](N)[C@H](O)[C@H](C)O1` [doxorubicin, Doxorubicin], the viability at 1 µM was ~80% with MCF-7 tissueoids [1] (Homo sapiens, MCF7, 48 h, read-out: viability (prestoblue, normalized with vehicle control as 100%)) and 35% in the assay on MCF-7 cells [2]. Moreover, the “resistance of tissueoids compared to vehicle control” value in the assay with MCF-7 tissueoids [1] (MCF-7 tissueoids, 1 μM doxorubicin) was “partial resistance”. The “morphology (vacuoles) in 2D culture” value with MCF-7 cells [3] (1 μM doxorubicin) is “Vacuoles were observed”. The “growth inhibition in 2D culture” value in the assay on MCF-7 cells [3] (vs DMSO vehicle control) is on record as “Dose-dependent growth inhibition”. Moreover, the growth of tissueoids result is given as “not inhibited” with MCF-7 tissueoids [4] (2.5 μM doxorubicin) and “Partial growth inhibition” with MCF-7 tissueoids [4] (5 μM doxorubicin). Also, the “tissueoid morphology at higher concentration” value in the assay on MCF-7 tissueoids [4] (higher concentration (5)) is “shrinking of the tissueoid was visible”.

By viability is commonly meant a read-out of living cells in per cent, often relative to untreated cells.
